Results: patent US11065214B1, “Combination therapies with disulfiram” (Spring Discovery, Inc., priority 2020, dated 2021)

Key:
[1] = target: transient receptor potential melastatin 8 (TRPM8) (Homo sapiens, UniProt Q7Z2W7); conditions: increase of [Ca2+]i; cited from earlier work
Spodoptera litum larvae = conditions: cited from earlier work
[2] = tested on: most gram-positive and some gram-negative bacteria; conditions: cited from earlier work
SAMP8 mice = conditions: intragastric, 4-month-old SAMP8 mice, 2 months; cited from earlier work
CYP2C9 = CYP2C9 (Homo sapiens, UniProt P11712); conditions: cited from earlier work
Sequence of CYP2C9 (P11712 whole entry, species assumed): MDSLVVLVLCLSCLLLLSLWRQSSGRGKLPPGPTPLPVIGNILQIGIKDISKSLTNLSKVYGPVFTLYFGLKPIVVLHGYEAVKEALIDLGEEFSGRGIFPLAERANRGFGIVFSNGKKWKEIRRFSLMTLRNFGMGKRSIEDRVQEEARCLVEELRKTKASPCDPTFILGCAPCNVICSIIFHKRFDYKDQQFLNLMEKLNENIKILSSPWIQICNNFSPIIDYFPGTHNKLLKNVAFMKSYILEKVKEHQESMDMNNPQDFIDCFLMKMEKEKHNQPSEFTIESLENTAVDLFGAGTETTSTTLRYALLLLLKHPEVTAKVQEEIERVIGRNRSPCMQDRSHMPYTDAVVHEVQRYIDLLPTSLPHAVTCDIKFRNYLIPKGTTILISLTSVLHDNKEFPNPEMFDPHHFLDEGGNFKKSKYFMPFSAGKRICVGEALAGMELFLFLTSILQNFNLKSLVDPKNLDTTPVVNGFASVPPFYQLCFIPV

CYP2C19 = CYP2C19 (Homo sapiens, UniProt P33261); conditions: cited from earlier work
Sequence of CYP2C19 (P33261 whole entry, species assumed): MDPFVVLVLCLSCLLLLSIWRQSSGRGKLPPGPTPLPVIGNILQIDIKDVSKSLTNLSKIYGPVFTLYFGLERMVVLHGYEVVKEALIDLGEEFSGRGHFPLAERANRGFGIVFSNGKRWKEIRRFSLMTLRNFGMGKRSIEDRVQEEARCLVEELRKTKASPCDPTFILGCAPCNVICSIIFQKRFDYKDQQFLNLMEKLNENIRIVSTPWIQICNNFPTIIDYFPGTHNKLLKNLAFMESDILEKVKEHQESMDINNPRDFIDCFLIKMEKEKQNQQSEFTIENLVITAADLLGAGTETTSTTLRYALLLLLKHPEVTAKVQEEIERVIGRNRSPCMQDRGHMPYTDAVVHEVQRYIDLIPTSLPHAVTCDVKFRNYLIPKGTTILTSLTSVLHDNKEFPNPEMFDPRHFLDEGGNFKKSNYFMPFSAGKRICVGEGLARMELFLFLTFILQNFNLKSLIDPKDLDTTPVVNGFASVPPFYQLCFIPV

CYP2C8 = CYP2C8 (Homo sapiens, UniProt P10632); conditions: cited from earlier work
Sequence of CYP2C8 (P10632 whole entry): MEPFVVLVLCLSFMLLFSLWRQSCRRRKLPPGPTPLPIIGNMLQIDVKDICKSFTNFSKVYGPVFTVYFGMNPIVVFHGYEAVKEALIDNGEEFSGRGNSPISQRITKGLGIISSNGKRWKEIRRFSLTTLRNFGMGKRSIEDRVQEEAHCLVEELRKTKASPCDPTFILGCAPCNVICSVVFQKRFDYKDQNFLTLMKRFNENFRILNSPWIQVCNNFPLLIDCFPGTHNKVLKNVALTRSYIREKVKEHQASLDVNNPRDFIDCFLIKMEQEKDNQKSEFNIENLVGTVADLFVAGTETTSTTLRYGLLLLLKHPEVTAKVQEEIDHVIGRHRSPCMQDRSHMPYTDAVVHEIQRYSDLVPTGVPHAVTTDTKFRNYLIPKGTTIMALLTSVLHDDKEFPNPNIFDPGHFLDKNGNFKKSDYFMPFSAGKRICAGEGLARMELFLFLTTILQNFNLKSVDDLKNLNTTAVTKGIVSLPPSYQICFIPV

brain blood flow = conditions: 450 mg/kg during a 15-minute period, after simvastatin 2 mg/kg subcutaneously daily for 14 days, SV-129 mice; cited from earlier work
severe sepsis = conditions: patients with severe sepsis, placebo cohort 24%; cited from earlier work
[3] = 510 mg/day, patients, cited from earlier work
[4] = target: N-methyl-D-aspartate receptors (NMDARs); conditions: glycine-binding site; read-out: KB, competitive antagonist of NMDARs; cited from earlier work
SIRT1 = SIRT1 (Homo sapiens, UniProt Q96EB6); conditions: cited from earlier work
Sequence of SIRT1 (Q96EB6 whole entry, species assumed): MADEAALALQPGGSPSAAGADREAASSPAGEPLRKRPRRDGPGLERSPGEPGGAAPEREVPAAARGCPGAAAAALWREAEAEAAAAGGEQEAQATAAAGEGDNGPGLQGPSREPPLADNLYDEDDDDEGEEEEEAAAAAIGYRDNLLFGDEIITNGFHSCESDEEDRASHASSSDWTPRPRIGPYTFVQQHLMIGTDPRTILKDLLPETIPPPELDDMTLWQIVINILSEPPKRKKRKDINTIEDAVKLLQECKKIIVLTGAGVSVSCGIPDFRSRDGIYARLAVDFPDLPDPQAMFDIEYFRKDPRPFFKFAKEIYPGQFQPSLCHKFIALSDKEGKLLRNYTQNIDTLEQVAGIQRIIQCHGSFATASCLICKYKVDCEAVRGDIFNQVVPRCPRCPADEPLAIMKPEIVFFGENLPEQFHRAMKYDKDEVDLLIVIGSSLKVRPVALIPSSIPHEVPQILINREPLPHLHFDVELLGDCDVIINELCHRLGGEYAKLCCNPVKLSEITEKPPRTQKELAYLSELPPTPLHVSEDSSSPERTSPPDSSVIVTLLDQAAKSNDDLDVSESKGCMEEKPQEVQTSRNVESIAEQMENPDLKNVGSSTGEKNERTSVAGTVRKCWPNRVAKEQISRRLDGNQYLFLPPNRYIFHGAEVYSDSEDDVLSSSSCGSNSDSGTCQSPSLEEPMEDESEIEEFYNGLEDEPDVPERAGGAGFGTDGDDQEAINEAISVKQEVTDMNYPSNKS

[5] = static toxicity tests; cited from earlier work
[6] = tested on: mouse skin carcinogenesis; conditions: cited from earlier work
[7] = tested on: fever induced by lipopolysaccharide (LPS); conditions: 50 or 100 mg/kg, i.p., 0 and 2 h; rats; cited from earlier work
carrageenan = conditions: 25, 50 or 100 mg/kg, i.p., immediately and 2 h after carrageenan; cited from earlier work
[8] = target: cyclo-oxygenase-2 (COX-2) (Homo sapiens, UniProt P35354); conditions: independently of NF-κB activation; cited from earlier work
Sequence of cyclo-oxygenase-2 (COX-2) (P35354 18-604, species assumed): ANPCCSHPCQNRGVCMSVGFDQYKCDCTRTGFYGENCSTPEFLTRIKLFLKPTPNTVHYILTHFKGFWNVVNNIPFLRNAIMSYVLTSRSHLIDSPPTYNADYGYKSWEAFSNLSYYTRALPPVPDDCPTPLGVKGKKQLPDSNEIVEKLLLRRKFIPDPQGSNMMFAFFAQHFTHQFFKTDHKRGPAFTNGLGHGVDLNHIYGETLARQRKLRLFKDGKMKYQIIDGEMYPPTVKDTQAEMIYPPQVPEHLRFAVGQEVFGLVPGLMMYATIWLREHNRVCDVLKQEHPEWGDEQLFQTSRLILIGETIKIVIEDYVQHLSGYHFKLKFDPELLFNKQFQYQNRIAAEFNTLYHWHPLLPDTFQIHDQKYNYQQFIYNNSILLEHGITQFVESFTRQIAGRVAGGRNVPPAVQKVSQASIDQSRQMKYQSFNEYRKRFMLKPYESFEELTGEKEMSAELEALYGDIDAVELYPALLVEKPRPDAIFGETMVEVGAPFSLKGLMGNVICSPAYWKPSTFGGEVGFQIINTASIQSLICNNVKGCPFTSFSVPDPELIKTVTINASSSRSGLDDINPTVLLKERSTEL

THP1 HMGB1 Lucia cells = experiment: Pyroptosis inhibition luciferase assay, LPS + nigericin, HMGB1 reporter (QUANTI-Luc); type: cell-based; conditions: compound alone; 1 μg/ml LPS 3 h, then 10 μM nigericin 3 h
[9] = tested on: fibroblasts, peripheral blood mononuclear cells (PBMCs), myoblasts; experiment: Reversal of aging (predicted age) in cultured young/old cells contacted with disulfiram plus potentiating ingredients; type: cell-based; conditions: concentrations 0.000005 to 80 μM; potentiating ingredient as high as 25 μM
neuroblastoma cells = conditions: cited from earlier work
influenza virus H1N1 = conditions: cited from earlier work
[10] = tested on: ProDH (proline dehydrogenase); conditions: competitive; plants; cited from earlier work
[11] = rats, doses up to 2000 mg/kg bw; cited from earlier work
[12] = doses up to 750 mg/kg bw; cited from earlier work

Sequence of transient receptor potential melastatin 8 (TRPM8) (Q7Z2W7 whole entry, species assumed): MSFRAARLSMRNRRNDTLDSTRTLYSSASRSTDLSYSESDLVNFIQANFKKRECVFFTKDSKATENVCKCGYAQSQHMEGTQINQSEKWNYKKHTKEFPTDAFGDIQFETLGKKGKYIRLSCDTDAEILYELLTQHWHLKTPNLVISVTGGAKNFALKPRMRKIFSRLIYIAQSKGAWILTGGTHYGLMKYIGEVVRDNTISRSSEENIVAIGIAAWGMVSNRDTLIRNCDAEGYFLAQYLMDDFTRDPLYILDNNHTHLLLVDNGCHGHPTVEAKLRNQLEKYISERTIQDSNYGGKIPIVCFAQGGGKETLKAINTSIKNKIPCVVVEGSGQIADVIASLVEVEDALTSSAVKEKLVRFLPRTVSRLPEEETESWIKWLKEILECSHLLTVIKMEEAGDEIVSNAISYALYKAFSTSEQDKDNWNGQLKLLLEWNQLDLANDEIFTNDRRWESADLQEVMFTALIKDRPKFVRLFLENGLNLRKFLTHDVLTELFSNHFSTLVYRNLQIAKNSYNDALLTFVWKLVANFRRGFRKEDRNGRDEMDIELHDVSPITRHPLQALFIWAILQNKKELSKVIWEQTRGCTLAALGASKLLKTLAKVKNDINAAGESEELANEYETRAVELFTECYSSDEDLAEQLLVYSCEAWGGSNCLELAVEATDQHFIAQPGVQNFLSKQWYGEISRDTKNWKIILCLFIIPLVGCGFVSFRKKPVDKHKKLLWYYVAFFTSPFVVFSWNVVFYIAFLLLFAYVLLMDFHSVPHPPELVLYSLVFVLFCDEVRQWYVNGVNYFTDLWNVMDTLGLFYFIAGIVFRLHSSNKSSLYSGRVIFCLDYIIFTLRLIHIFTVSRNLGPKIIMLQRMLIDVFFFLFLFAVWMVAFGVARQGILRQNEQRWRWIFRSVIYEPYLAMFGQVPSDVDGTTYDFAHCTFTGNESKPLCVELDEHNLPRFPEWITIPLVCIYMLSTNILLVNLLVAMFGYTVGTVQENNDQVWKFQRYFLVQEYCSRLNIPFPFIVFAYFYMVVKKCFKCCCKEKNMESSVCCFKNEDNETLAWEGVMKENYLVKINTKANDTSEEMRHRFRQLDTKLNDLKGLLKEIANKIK

Compound: CC1CCC(C(C)C)C(O)C1 (single isomer, unassigned; (-)) [(−)-Menthol]
- binding and activation of TRPM8 [1]: (−)-Menthol is a key component of peppermint oil that binds and activates

Compound: CCCC=C1OC(=O)c2ccccc21 [3-Butylidenephthalide]
- LC50, larvicidal activity (Spodoptera litum larvae): activity (LC50 of 1.56 mg/g for Spodoptera litum larvae).

Compound: O=C(O)c1ccc(O)cc1 [4-Hydroxybenzoic acid]
- IC50, inhibition of most gram-positive and some gram-negative bacteria [2]: IC50 of 160 μg/mL.

Compound: CCCCC1OC(=O)c2ccccc21 (centres unmarked) [Butylphthalide]
- spatial learning and memory ability (SAMP8 mice): 2 months significantly improved spatial learning and memory ability.

Compound: C[C@@H]1CC[C@H]2C(C)(C)[C@H]3C[C@@]12CC[C@@]3(C)O [Cedrol]
- inhibitory effect on CYP2C9 (CYP2C9): weak
- inhibitory effect on CYP2C19 (CYP2C19): weak
- inhibitory effect on CYP2C8 (CYP2C8): weak

Compound: N=C(N)NCCC[C@H](N)C(=O)O [L-Arginine]
- hyperemia (brain blood flow): minute period) amplifies and sustains the hyperemia (38%) and increases
- Resolution of shock at 72 hours, share of patients (severe sepsis): 72 hours is achieved by 40% and 24% of the patients in the L-Arginine

Compound: C[N+](C)(C)C[C@H](O)CC(=O)[O-] [L-Carnitine]
- total time for dozing off during the daytime ([3]; versus placebo-treated periods): L-carnitine (Levocarnitine) treatment significantly improved the total
- serum acylcarnitine levels [3]: L-carnitine (Levocarnitine) efficiently increased serum acylcarnitine
- serum triglycerides concentration [3]: levels, and reduced serum triglycerides concentration.

Compound: N[C@@H](Cc1ccccc1)C(=O)O [L-Phenylalanine]
- Kb [4]: 573 µM

Compound: NC(=O)c1cccnc1 [Nicotinamide]
- inhibition of SIRT1 (SIRT1): reactions. Nicotinamide is an inhibitor of SIRT1.

Compound: CCCCCCCCC(=O)NCc1ccc(O)c(OC)c1 [Nonivamide]
- 4d-EC50 [5]: 5.1 mg/L in static toxicity tests.

Compound: CCCCCCCC(=O)CCc1ccc(O)c(OC)c1 [Paradol]
- inhibition of tumor promotion [6]: Zingiberaceae plants. Paradol is an effective inhibitor of tumor promotion

Compound: Cc1cc2nc3c(=O)[nH]c(=O)nc-3n(C[C@H](O)[C@H](O)[C@H](O)CO)c2cc1C [Riboflavin]
- effect on LPS-induced fever [7]: inhibited the fever induced by lipopolysaccharide (LPS) in rats.
- antiedema and antinociceptive effects (carrageenan): induced antiedema and antinociceptive effects. The antinociceptive effect

Compound: O=C(O)c1ccccc1O [Salicylic acid]
- inhibition of COX-2 activity [8]: Salicylic acid (2-Hydroxybenzoic acid) inhibits cyclo-oxygenase-2

Compound: CC(C)(C)c1cc(O)ccc1O [TBHQ, tert-Butylhydroquinone]
- pyroptosis inhibition (HMGB1 luciferase reporter in supernatant) (THP1 HMGB1 Lucia cells): no effect on pyroptosis inhibition or a clear IC50
- ability in combination with disulfiram to reverse aging in the cells [9]: identified as a potentiating ingredient

Compound: COc1cc(CCC(C)=O)ccc1O [Zingerone]
- growth of neuroblastoma cells (neuroblastoma cells): agent, and inhibits the growth of neuroblastoma cells.

Compound: OC[C@H]1O[C@@H]2O[C@H]3[C@H](O)[C@@H](O)[C@@H](O[C@H]4[C@H](O)[C@@H](O)[C@@H](O[C@H]5[C@H](O)[C@@H](O)[C@@H](O[C@H]6[C@H](O)[C@@H](O)[C@@H](O[C@H]7[C@H](O)[C@@H](O)[C@@H](O[C@H]8[C@H](O)[C@@H](O)[C@@H](O[C@H]1[C@H](O)[C@H]2O)O[C@@H]8CO)O[C@@H]7CO)O[C@@H]6CO)O[C@@H]5CO)O[C@@H]4CO)O[C@@H]3CO [β-Cyclodextrin]
- anti-influenza virus activity (influenza virus H1N1): Cyclodextrin has anti-influenza virus H1N1 activities.

Compound: D-(-)-Lactic acid
- inhibition of ProDH [10]: inhibitor of ProDH (proline dehydrogenase) in plants.

Compound: Rebaudioside A
- genotoxic effects, unscheduled DNA synthesis test [11]: rebaudioside A do not cause any genotoxic effects at any of the doses
- genotoxic effects, mouse micronucleus test [12]: rebaudioside A do not cause any genotoxic effects at any of the doses
